Converted amounts (≈) assume the structure as drawn. Like-named read-outs stand apart in the source and are kept apart here.
Assays:
[1] = tested on: M. hyosynoviae ATCC 25591; assay: MIC against Mycoplasma in vitro (Friis broth with agarose); assay type: cell-based; settings: 144 h
M. bovis NCTC 10131 = assay: microbe, parasite or virus in culture; assay type: cell-based; settings: NCTC10131, 144 h
[2] = tested on: M. hyopneumoniae NCTC 101101; assay: MIC against Mycoplasma in vitro (Friis broth with agarose); assay type: cell-based; settings: Mesomycoplasma hyopneumoniae, NCTC101101, 144 h
S. typhimurium S18 = assay: MIC against veterinary bacteria in vitro (Diagnostic Sensitivity Test Agar); settings: Salmonella enterica, 18 h
Description: (§1) The activity of the normonyl derivatives of the Examples against various veterinarily important bacteria, was assayed in vitro using two-fold serial dilutions in Diagnostic Sensitivity Test Agar inoculated with 10^4 organisms.

[3] = tested on: Erysipelothrix rhusiopathiae NCTC 8163; assay: as above; settings: NCTC8163, 18 h
Description: as §1

Bord. bronchiseptica B08 = assay: as above; settings: Bordetella bronchiseptica, B08, 18 h
Description: as §1

E. coli NCTC 10418 = assay: as above; settings: Escherichia coli, NCTC10418, 18 h
Description: as §1

[4] = tested on: Corynebacterium pyogenes CY1; assay: as above; settings: CY1, 18 h
Description: as §1

Past. haemolytica PA5 = assay: as above; settings: Mannheimia haemolytica, PA5, 18 h
Description: as §1

M. pneumoniae ATCC 15492 = assay: MIC against Mycoplasma in vitro (Friis broth with agarose); assay type: cell-based; settings: Mycoplasmoides pneumoniae, ATCC15492, 144 h
[5] = tested on: M. bovigenitalium ATCC 14173; assay: as above; assay type: cell-based; settings: 144 h
M. hyorhinis ATCC 23234 = assay: as above; assay type: cell-based; settings: Mesomycoplasma hyorhinis, ATCC23234, 144 h
M. hyopneumoniae Str. 11 = assay: as above; assay type: cell-based; settings: Mesomycoplasma hyopneumoniae
S. dublin S7 = assay: MIC against veterinary bacteria in vitro (Diagnostic Sensitivity Test Agar); settings: Salmonella enterica, S7, 18 h
Description: as §1

[6] = tested on: Staph. aureus 152 (pen. sens); assay: as above; settings: Staphylococcus aureus, 18 h
Description: as §1

Past. multocida PA1 = assay: as above; settings: Pasteurella multocida, PA1, 18 h
Description: as §1

Strep. agalactiae SPA1 = assay: as above; settings: Streptococcus agalactiae, SPA1, 18 h
Description: as §1

[7] = tested on: Staph. aureus B4 (pen. resistant); assay: as above; settings: Staphylococcus aureus, 18 h
Description: as §1

M. hyopneumoniae UCD 1 = assay: MIC against Mycoplasma in vitro (Friis broth with agarose); assay type: cell-based; settings: Mesomycoplasma hyopneumoniae, UCD1, 144 h
M. gallisepticum S6 = assay: as above; assay type: cell-based; settings: Mycoplasmoides gallisepticum
Strep. uberis SPU1 = assay: MIC against veterinary bacteria in vitro (Diagnostic Sensitivity Test Agar); settings: Streptococcus uberis, SPU1, 18 h
Description: as §1

Bord. bronchiseptica B09 = assay: as above; settings: Bordetella bronchiseptica, B09, 18 h
Description: as §1

M. hyopneumoniae TAM 6N = assay: MIC against Mycoplasma in vitro (Friis broth with agarose); assay type: cell-based; settings: Mesomycoplasma hyopneumoniae, TAM6N, 144 h
Strep. dysgalactiae SPD1 = assay: MIC against veterinary bacteria in vitro (Diagnostic Sensitivity Test Agar); settings: Streptococcus dysgalactiae, SPD1, 18 h
Description: as §1

[8] = tested on: Strep. suis (group D) SPS11; assay: as above; settings: Streptococcus suis, 18 h
Description: as §1

Past. multocida PA2 = assay: as above; settings: Pasteurella multocida, PA2, 18 h
Description: as §1

M. dispar NCTC 10125 = assay: MIC against Mycoplasma in vitro (Friis broth with agarose); assay type: cell-based; settings: 144 h
M. hyorhinis ATCC 25021 = assay: as above; assay type: cell-based; settings: Mesomycoplasma hyorhinis, ATCC25021, 144 h
[9] = tested on: M. hyopneumoniae ATCC 25095; assay: as above; assay type: cell-based; settings: Mesomycoplasma hyopneumoniae, ATCC25095, 144 h; M. hyopneumoniae ATCC 25095; 6 days at 37° C; read-out: MIC
M. hyopneumoniae MS 16 = assay: as above; assay type: cell-based; settings: Mesomycoplasma hyopneumoniae, MS16, 144 h; M. hyopneumoniae MS 16; 6 days at 37° C; read-out: MIC
[10] = M. hyosynoviae ATCC 25591, 6 days at 37° C, read-out: MIC
[11] = M. hyopneumoniae NCTC 101101, 6 days at 37° C, read-out: MIC
[12] = M. pneumoniae ATCC 15492, 6 days at 37° C, read-out: MIC
[13] = M. bovigenitalium ATCC 14173, 6 days at 37° C, read-out: MIC
[14] = M. hyorhinis ATCC 23234, 6 days at 37° C, read-out: MIC
[15] = 144 h, M. hyopneumoniae Str. 11, 6 days at 37° C, read-out: MIC
[16] = M. hyopneumoniae UCD 1, 6 days at 37° C, read-out: MIC
[17] = 144 h, M. gallisepticum S6, 6 days at 37° C, read-out: MIC
[18] = M. hyopneumoniae TAM 6N, 6 days at 37° C, read-out: MIC
[19] = M. dispar NCTC 10125, 6 days at 37° C, read-out: MIC
[20] = M. hyorhinis ATCC 25021, 6 days at 37° C, read-out: MIC

| SMILES | MIC [1, 10] [µg/mL] | MIC (M. bovis NCTC 10131) [µg/mL] | MIC [2, 11] [µg/mL] | MIC (S. typhimurium S18) [µg/mL] | MIC [3] [µg/mL] | MIC (Bord. bronchiseptica B08) [µg/mL] | MIC (E. coli NCTC 10418) [µg/mL] | MIC [4] [µg/mL] | MIC (Past. haemolytica PA5) [µg/mL] | MIC (M. pneumoniae ATCC 15492; [12]) [µg/mL] | MIC (S. dublin S7) [µg/mL] | MIC [6] [µg/mL] | MIC (Past. multocida PA1) [µg/mL] | MIC (Strep. agalactiae SPA1) [µg/mL] | MIC [7] [µg/mL] | MIC (Strep. uberis SPU1) [µg/mL] | MIC (Bord. bronchiseptica B09) [µg/mL] | MIC (Strep. dysgalactiae SPD1) [µg/mL] | MIC [8] [µg/mL] | MIC (Past. multocida PA2) [µg/mL] | further results |
| --- | --- | --- | --- | --- | --- | --- | --- | --- | --- | --- | --- | --- | --- | --- | --- | --- | --- | --- | --- | --- | --- |
| CC(=Cc1nnc(-c2ccco2)o1)CC1OCC(CC2OC2C(C)C(C)O)C(O)C1O (centres unmarked) [Example 8, 2-(2-Furyl)-5-(1-normon-2-yl)-1,3,4-oxadiazole A] | 2.5 (≈ 5.75 µM) | 0.1 (≈ 0.23 µM) | 10 (≈ 23 µM) | > 80 | > 80 | > 80 | > 80 | > 80 | 40 (≈ 92.1 µM) | > 10 | > 80 | 40 (≈ 92.1 µM) | 1.25 (≈ 2.88 µM) | > 80 | 20 (≈ 46 µM) | 10 (≈ 23 µM) | 80 (≈ 184 µM) | 40 (≈ 92.1 µM) | > 80 | 0.625 (≈ 1.44 µM) | MIC [5, 13]: 0.5 µg/mL (≈ 1.15 µM); MIC (M. hyorhinis ATCC 23234; [14]): 2.5 µg/mL (≈ 5.75 µM); MIC (M. hyopneumoniae Str. 11; [15]): 5 µg/mL (≈ 11.5 µM); MIC (M. hyopneumoniae UCD 1; [16]): 5 µg/mL (≈ 11.5 µM); MIC (M. gallisepticum S6; [17]): > 10 µg/mL; MIC (M. hyopneumoniae TAM 6N; [18]): 10 µg/mL (≈ 23 µM); MIC (M. dispar NCTC 10125; [19]): 1 µg/mL (≈ 2.3 µM); MIC (M. hyorhinis ATCC 25021; [20]): 2.5 µg/mL (≈ 5.75 µM) |
| CC(=Cc1nnc(-c2ccncc2)o1)CC1OCC(CC2OC2C(C)C(C)O)C(O)C1O (centres unmarked) [Example 7, 2-(1-Normon-2-yl)-5-(4-pyridyl)-1,3,4-oxadiazole A] | 0.5 (≈ 1.12 µM) | 0.025 (≈ 0.0561 µM) | 2.5 (≈ 5.61 µM) | > 80 | 80 (≈ 180 µM) | > 80 | > 80 | > 80 | 20 (≈ 44.9 µM) | – | > 80 | 10 (≈ 22.4 µM) | 2.5 (≈ 5.61 µM) | 20 (≈ 44.9 µM) | 10 (≈ 22.4 µM) | 2.5 (≈ 5.61 µM) | 20 (≈ 44.9 µM) | 10 (≈ 22.4 µM) | > 80 | 0.625 (≈ 1.4 µM) | MIC (M. pneumoniae ATCC 15492): > 10 µg/mL; MIC [5]: 0.25 µg/mL (≈ 0.561 µM); MIC (M. hyorhinis ATCC 23234; [14]): 0.5 µg/mL (≈ 1.12 µM); MIC (M. hyopneumoniae Str. 11; [15]): 0.5 µg/mL (≈ 1.12 µM); MIC (M. hyopneumoniae UCD 1; [16]): 1 µg/mL (≈ 2.24 µM); MIC (M. gallisepticum S6; S6, 144 h): > 10 µg/mL; MIC (M. hyopneumoniae TAM 6N; [18]): 2.5 µg/mL (≈ 5.61 µM); MIC (M. dispar NCTC 10125): 0.25 µg/mL (≈ 0.561 µM); MIC (M. hyorhinis ATCC 25021; [20]): 0.5 µg/mL (≈ 1.12 µM) |
| CC(=Cc1nnc(-c2ccc(N(C)C)cc2)o1)CC1OCC(CC2OC2C(C)C(C)O)C(O)C1O (centres unmarked) [Example 10, 2-(4-Dimethylaminophenyl)-5-(1-normon-2-yl)-1,3,4-oxadiazole A] | – | 0.25 (≈ 0.513 µM) | – | > 80 | 40 (≈ 82 µM) | > 80 | > 80 | > 80 | 40 (≈ 82 µM) | 10 (≈ 20.5 µM) | > 80 | 5 (≈ 10.3 µM) | 40 (≈ 82 µM) | > 80 | 5 (≈ 10.3 µM) | 20 (≈ 41 µM) | > 80 | 80 (≈ 164 µM) | > 80 | 5 (≈ 10.3 µM) | MIC [1]: 2.5 µg/mL (≈ 5.13 µM); MIC [2]: 5 µg/mL (≈ 10.3 µM); MIC [5]: 1 µg/mL (≈ 2.05 µM); MIC (M. hyorhinis ATCC 23234): 1 µg/mL (≈ 2.05 µM); MIC (M. hyopneumoniae Str. 11; STR.11, 144 h): 1 µg/mL (≈ 2.05 µM); MIC (M. hyopneumoniae UCD 1): 2.5 µg/mL (≈ 5.13 µM); MIC (M. gallisepticum S6; [17]): > 10 µg/mL; MIC (M. hyopneumoniae TAM 6N): 5 µg/mL (≈ 10.3 µM); MIC (M. dispar NCTC 10125): 0.5 µg/mL (≈ 1.03 µM); MIC (M. hyorhinis ATCC 25021): 1 µg/mL (≈ 2.05 µM) |
| CC(=Cc1nnc(-c2cccnc2)o1)CC1OCC(CC2OC2C(C)C(C)O)C(O)C1O (centres unmarked) [Example 5, 2-(1-Normon-2-yl)-5-(3-pyridyl)-1,3,4-oxadiazole A] | 1 (≈ 2.24 µM) | 0.025 (≈ 0.0561 µM) | 2.5 (≈ 5.61 µM) | > 80 | 80 (≈ 180 µM) | > 80 | > 80 | > 80 | – | > 10 | > 80 | 10 (≈ 22.4 µM) | 1.25 (≈ 2.81 µM) | 20 (≈ 44.9 µM) | 10 (≈ 22.4 µM) | 2.5 (≈ 5.61 µM) | 20 (≈ 44.9 µM) | 10 (≈ 22.4 µM) | > 80 | 1.25 (≈ 2.81 µM) | MIC [9]: 1 µg/mL (≈ 2.24 µM); MIC [5, 13]: 0.25 µg/mL (≈ 0.561 µM); MIC (M. hyorhinis ATCC 23234; [14]): 1 µg/mL (≈ 2.24 µM); MIC (M. hyopneumoniae Str. 11; [15]): 1 µg/mL (≈ 2.24 µM); MIC (M. hyopneumoniae MS 16): 1 µg/mL (≈ 2.24 µM); MIC (M. hyopneumoniae UCD 1): 2.5 µg/mL (≈ 5.61 µM); MIC (M. gallisepticum S6; [17]): > 10 µg/mL; MIC (M. hyopneumoniae TAM 6N; [18]): 2.5 µg/mL (≈ 5.61 µM); MIC (M. dispar NCTC 10125; [19]): 0.5 µg/mL (≈ 1.12 µM); MIC (M. hyorhinis ATCC 25021; [20]): 1 µg/mL (≈ 2.24 µM) |

From patent publication US4861788A, “Antibacterial 1-normon-2-yl-heterocyclic compounds” (Beecham Group plc, priority 1983, dated 1989)
